Patent publication US8940909B2, “Indicator platform” (Biosynth AG, priority 2009, dated 2015)

Assays:
[1] = system: beta-galactosidase negative Salmonella enteritidis (RKI 05/07992); assay type: cell-based; settings: S. enteritidis (b-gal negative), 24 h, 150 mg/l substrate and 100 mg/l IPTG; for F: Fluorescence of colonies (strength): 366 nm UV; for all read-outs here: key: −: absent; +/−: weak; +: strong; ++: very strong
Description: (§1) Nutrient Agar (5 g/l peptone, 5 g/l NaCl, 2 g/l yeast extract, 1 g/l beef extract, 13 g/l agar, pH 7.4) was autoclaved and allowed to cool to 50° C. Then indicators were added to final concentrations of 150 mg/l (from a 20 mg/ml stock solution in DMF).
(§2) Optionally IPTG was added to 100 mg/l (from a 100 mg/ml stock solution in H2O) and plates were poured. Agar plates were inoculated with cultures of beta-galactosidase positive Eschericha coli (NM1) or beta-galactosidase negative Salmonella enteritidis (RKI 05/07992) (pre-grown on nutrient broth for 8-18 hours) and incubated at 37° C. Plates were inspected at 16, 20, 24 and 48 hours and pictures were recorded at 18, 24, and 48 hours with a Digistore 2 Image documentation system (CAMAG) under white light.
(§3) A considerable number of indicators molecules (Table IVa, IVb) and a selection of labile groups (Table IVc) were tested with various microbial species producing different biomarker enzymes (external stimuli, eS). The color of stains ranges from yellow to red.
(§4) Plating media from Example 10 were examined under 366 nm UV irradiation at 16, 20, 24 and 48 hours for fluorescence by means of Digistore 2 Image documentation system (CAMAG). Loops of bacterial cells, grown for 48 hours on Nutrient Agar plates containing 150 mg/l beta-D-galactosidase indicator and 100 mg/l IPTG, were directly streaked into wells of black clear bottom microtiter plates. Fluorescence scans were recorded on a Spectramax M5 (Molecular Devices).

[2] = system: beta-galactosidase positive Eschericha coli (NM1); assay: IO staining of bacterial colonies on Nutrient Agar (color, fluorescence, localization, growth); for C: Color of colonies (strength): key: −: absent; +/−: weak; +: strong; ++: very strong; for F: Fluorescence of colonies (strength): key: −: absent; +/−: weak; +: strong; ++: very strong; for G: Growth of colonies: key: −: absent; +/−: weak; +: strong; ++: very strong; for L: Localization of stain on colonies: key: −: absent; +/−: weak; +: strong; ++: very strong; assay type: cell-based, E. coli; settings: 150 mg/l substrate and 100 mg/l IPTG; for C: Color of colonies (colour of stain) / C: Color of colonies (strength): 24 h on Nutrient Agar; for G: Growth of colonies / L: Localization of stain on colonies / F: Fluorescence of colonies (strength) / C: Color of colonies (strength): E. coli; for G: Growth of colonies / L: Localization of stain on colonies / F: Fluorescence of colonies (strength) / F: Fluorescence of colonies (colour): 24 h; for F: Fluorescence of colonies (strength) / F: Fluorescence of colonies (colour): 366 nm UV
Description: as §1, §2, §3, §4

| SMILES | C: Color of colonies (strength) [1] | F: Fluorescence of colonies (strength) [1] | C: Color of colonies (colour of stain) [2] | G: Growth of colonies [2] | L: Localization of stain on colonies [2] | F: Fluorescence of colonies (strength) [2] | C: Color of colonies (strength) [2] | F: Fluorescence of colonies (colour) [2] |
| --- | --- | --- | --- | --- | --- | --- | --- | --- |
| O=Cc1ccccc1-n1cc(O[C@@H]2O[C@H](CO)[C@H](O)[C@H](O)[C@H]2O)c2ccccc21 [Indicator I13a, 1-(2-Formylphenyl)-1H-indol-3-yl-beta-D-galactopyranoside] | − | − | cream-orange | + | + | − | +/− |  |
| CC(=O)c1ccccc1-n1cc(O[C@@H]2O[C@H](CO)[C@H](O)[C@H](O)[C@H]2O)c2ccccc21 [Indicator I14a, 1-(2-Acetylphenyl)-1H-indol-3-yl-beta-D-galactopyranoside] | − | − | light yellow | + | + | − | + |  |
| CC(=O)c1ccccc1-n1cc(O[C@@H]2O[C@H](CO)[C@H](O)[C@H](O)[C@H]2O)c2c(Cl)c(Br)ccc21 [Indicator I17a, 1-(2-Acetylphenyl)-5-bromo-4-chloro-1H-indol-3-yl-beta-D-galactopyranoside] | − | − | yellow-orange | + | + | − | + |  |
| COc1ccc(C(C)=O)c(-n2cc(O[C@@H]3O[C@H](CO)[C@H](O)[C@H](O)[C@H]3O)c3ccc(Cl)cc32)c1 [Indicator I18a, 1-(2-Acetyl-5-methoxyphenyl)-6-chloro-1H-indol-3-yl-beta-D-galactopyranoside] | − | − | light yellow | + | +/− | +/− | + | green |
| O=C(c1ccccc1)c1ccccc1-n1cc(O[C@@H]2O[C@H](CO)[C@H](O)[C@H](O)[C@H]2O)c2ccccc21 [Indicator I19a, 1-(2-Benzoylphenyl)-1H-indol-3-yl-beta-D-galactopyranoside] | − | − | yellow-orange | + | + | + | + | yellow |
| O=C(c1ccccc1)c1ccccc1-n1cc(O[C@@H]2O[C@H](CO)[C@H](O)[C@H](O)[C@H]2O)c2c(Cl)cccc21 [Indicator I20a, 1-(2-Benzoylphenyl)-4-chloro-1H-indol-3-yl-beta-D-galactopyranoside] | − | − | orange | + | cryst. | +/− | +/− | orange |
| O=C(c1ccccc1)c1ccc(Cl)cc1-n1cc(O[C@@H]2O[C@H](CO)[C@H](O)[C@H](O)[C@H]2O)c2ccc(Cl)cc21 [Indicator I23a, 1-(2-Benzoyl-5-chlorophenyl)-6-chloro-1H-indol-3-yl-beta-D-galactopyranoside] |  |  | yellow | + | + | + | + | green-yellow |
| COc1ccc(C(=O)c2ccccc2)c(-n2cc(O[C@@H]3O[C@H](CO)[C@H](O)[C@H](O)[C@H]3O)c3ccc(Cl)cc32)c1 [Indicator I24a, 1-(2-Benzoyl-5-methoxyphenyl)-6-chloro-1H-indol-3-yl-beta-D-galactopyranoside] | − | − | dark yellow | + | +/− | + | + | yellow-green |
| COc1ccc(C(=O)c2ccccc2-n2cc(O[C@@H]3O[C@H](CO)[C@H](O)[C@H](O)[C@H]3O)c3c(Cl)cccc32)c(OC)c1 [Indicator I26a, 4-Chloro-1-[2-(2,4-dimethoxybenzoyl)phenyl]-1H-indol-3-yl-beta-D-galactopyranoside] | − | − | yellow-orange | + | + | +/− | + | orange |
| O=C(O)c1ccc(C(=O)c2ccccc2-n2cc(O[C@@H]3O[C@H](CO)[C@H](O)[C@H](O)[C@H]3O)c3ccc(Cl)cc32)o1 [Indicator I29a, 1-[2-(5-Carboxylfuranoyl)phenyl]-6-chloro-1H-indol-3-yl-beta-D-galactopyranoside] | − | − | red | + | − | − | + |  |
| O=C(c1ccco1)c1ccccc1-n1cc(O[C@@H]2O[C@H](CO)[C@H](O)[C@H](O)[C@H]2O)c2ccc(Cl)cc21 [Indicator I30a, 6-Chloro-1-(2-furanoylphenyl)-1H-indol-3-yl-beta-D-galactopyranoside] | − | − | dark orange | + | +/− | +/− | ++ | orange-red |
